Patent US20240025906A1 (NEURON23, INC., priority 2022, published 2024)
Like-named read-outs stand apart in the source and are kept apart here.

How the values were obtained:
[1] = target: T1, TYK2 JH2 (Homo sapiens, UniProt P29597); experiment: TYK2 JH2 binding assay (KINOMEscan KdELECT competitive binding); conditions: TYK2 JH2 domain, read-out: Biochemical TYK2_DiscoverX_JH2_BND_Kd
T1 construct: purchased DiscoverX (KINOMEscan KdELECT service); host or cells: E. coli BL21-derived (T7 phage display) or HEK-293
T1 sequence (P29597 589-875 limits assumed): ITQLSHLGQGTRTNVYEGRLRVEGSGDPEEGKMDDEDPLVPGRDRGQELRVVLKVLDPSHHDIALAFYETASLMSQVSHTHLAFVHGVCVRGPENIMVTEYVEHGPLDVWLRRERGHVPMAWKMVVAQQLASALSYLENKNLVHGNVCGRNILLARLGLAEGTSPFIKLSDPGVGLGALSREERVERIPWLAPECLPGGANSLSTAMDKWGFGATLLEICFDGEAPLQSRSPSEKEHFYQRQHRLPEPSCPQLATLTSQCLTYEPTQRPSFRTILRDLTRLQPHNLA
In short: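 Beads carrying a biotinylated ligand were mixed with tagged JH2 kinase and compound (11 points, 3-fold steps, 0.9% DMSO) and shaken 1 h at room temperature. After washing, kinase was released with 0.5 μM untagged ligand over 30 min and measured by qPCR to derive Kd.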

[2] = tested on: JAK1/TYK2 pSTAT5 (Tyr694/699) in THP-1 cell line; experiment: IFNa-stimulated JAK1/TYK2 pSTAT5 (Tyr694/699) inhibition cellular assay, AlphaLISA; type: cell-based; conditions: Homo sapiens, THP-1 cells, AlphaLISA (Assay B), read-out: Cellular_THP1_IFNa-pSTATS_TYK2
Experimental: Assay B: JAK1/TYK2 pSTAT5 (Tyr694/699) inhibition IC50 Cellular Assays
To evaluate the inhibition effect of compounds disclosed herein against TYK2, an IFNa-stimulated JAE1/TYK2 pSTAT5 (Tyr694/699) quantification assay was conducted in the THP-1 cell line using an AlphaLISA detection method (PerkinElmer ALSU-PST5). Compounds in DMSO were serially diluted in a 96-well plate (10 mM starting concentration, 6-fold dilutions, 8 concentrations total) prior to dispensing of 8 nL into a 384-well plate using an I.DOT non-contact liquid handler (Dispendix). Cells were collected via centrifugation at 300 ref for 5 min and resuspended in Hanks' Balanced Salt Solution (Gibco 14175-079), and 6 μl containing 2e4 cells was dispensed into each well of the 384-well plate containing test compounds or DMSO alone (final concentrations: 10000, 1666.67, 277.78, 46.30, 7.72, 1.29, 0.21 and 0.04 nM). Cells were then incubated for 1 h at 37° C. with 5% CO2 prior to the addition of 2 μL IFNa (100 ng/mL; PBL Assay Science 11175-1). Following an additional 30 min incubation at 37° C. with 5% CO2, 2 μL of 5× lysis buffer was added to each well using the I.DOT […]. Plates were sealed and incubated at RT for 10 min on a plate shaker set to 400 RPM. Cell lysates were then frozen at −80° C. before subsequent detection of pSTAT5 by AlphaLISA. At the time of the detection assay, cell lysates were thawed for 5 min at room temperature and then on a plate shaker set to 400 RPM for an additional 10 min. Following the manufacturer recommended protocol (Perkin Elmer), 5 μL of acceptor bead master mix was added to each well; plates were then resealed and incubated for 2 min at RT on a plate shaker (400 rpm) prior to an additional 2-h incubation without agitation (protected from light). Donor bead master mix, 5 uL per well, was then added to each well before 2 min of shaking (RT, 400 rpm) and 2-h incubation (RT, no shaking, protected from light). Levels of pSTAT5 protein were then measured as fluorescent signal at 615 nm with an EnVision multimode plate reader (Perkin Elmer). IC50 values were calculated in Dotmatics using the four-parameter logistic curve regression model with bottom fixed to 0 and Hill Slope fixed to −1.

[3] = DiscoverX KINOMEscan KdELECT (Assay A)

| SMILES | Kd ([1]; KINOMEscan KdELECT (Assay A)) | IC50 ([2]; IFNa-stimulated) | IC50 ([2]; IFNa-stimulated pSTAT5 (Tyr694/699)) | Kd [1, 3] |
| --- | --- | --- | --- | --- |
| CNc1ncc(-c2nc3cc(N4CCOCC4)ccc3o2)c2cc(NC(=O)C3C[C@@H]3C(F)(F)F)ncc12 (stereo partly drawn) [Example 1065, N-(8-(methylamino)-5-(5-morpholinobenzo[d]oxazol-2-yl)-2,7-naphthyridin-3-yl)-2-(trifluoromethyl)cyclopropane-1-carboxamide] | ≤ 100 nM |  | ≤ 500 nM |  |
| CNc1ncc(-c2nc(Cc3ncnn3C)co2)c2cc(NC(=O)C3CC3)ncc12 [Example 828, N-(5-(4-((1-methyl-1H-1,2,4-triazol-5-yl)methyl)oxazol-2-yl)-8-(methylamino)-2,7-naphthyridin-3-yl)cyclopropanecarboxamide] | ≤ 100 nM | > 500 nM |  |  |
| CNc1ncc(-c2nc3cc(N4CCOCC4=O)ccc3o2)c2cc(NC(=O)C3CC3)ncc12 [Example 929, N-(8-(methylamino)-5-(5-(3-oxomorpholino)benzo[d]oxazol-2-yl)-2,7-naphthyridin-3-yl)cyclopropanecarboxamide] | ≤ 100 nM | ≤ 500 nM |  |  |
| CNc1ncc(-c2nc3cc(N4CC5COCC(C5)C4)ccc3o2)c2cc(NC(=O)C3CC3)ncc12 [Example 285, N-(5-(5-(3-oxa~7-azabicyclo[3.3.1]nonan-7-yl)benzo[d]oxazol-2-yl)-8-(methylamino)-2,7-naphthyridin-3-yl)cyclopropanecarboxamide] |  | ≤ 500 nM |  | ≤ 100 nM |
| CNc1ncc(/C=C/c2ccc(N3C[C@@H](C)O[C@@H](C)C3)cc2)c2cc(NC(=O)C3CC3)ncc12 [Example 786, N-(5-((E)-4-((2R,6S)-2,6-dimethylmorpholino)styryl)-8-(methylamino)-2,7-naphthyridin-3-yl)cyclopropanecarboxamide] | ≤ 100 nM | ≤ 500 nM |  |  |
| CNc1ncc(-c2nc3cc(N4CCN(C)CC4)ccc3o2)c2cc(NC(=O)C3CC3)ncc12 [Example 304, N-(8-(methylamino)-5-(5-(4-methylpiperazin-1-yI)benzo[d]oxazol-2-y1)-2,7-naphthyridin-3-yl)cyclopropanecarboxamide] |  | ≤ 500 nM |  | ≤ 100 nM |
| CNc1ncc(-c2nc3ccc(N4CCOCC4)cn3n2)c2cc(NC(=O)[C@H]3C[C@H]3C)ncc12 [Example 525, (1S,2R)-2-methyl-N-(8-(methylamino)-5-(6-morpholino-[1,2,4]triazolo[1,5-a]pyridin-2-yl)-2,7-naphthyridin-3-yl)cyclopropane-1-carboxamide] |  | ≤ 500 nM |  | ≤ 100 nM |
| CCc1nc(C)c(C#Cc2cnc(NC)c3cnc(NC(=O)C4CC4)cc23)s1 [Example 961, N-(5-((2-ethyl-4-methylthiazol-5-yl)ethynyl)-8-(methylamino)-2,7-naphthyridin-3-yl)cyclopropanecarboxamide] | ≤ 100 nM | ≤ 500 nM |  |  |

More lines, now with the values ahead:

| Kd ([1]; KINOMEscan KdELECT (Assay A)) | IC50 ([2]; IFNa-stimulated) | IC50 ([2]; IFNa-stimulated pSTAT5 (Tyr694/699)) | Kd [1, 3] | SMILES |
| --- | --- | --- | --- | --- |
| ≤ 100 nM | ≤ 500 nM |  |  | CNc1ncc(-c2nc3cc(N4CCOC(C(F)(F)F)C4)ccc3o2)c2cc(NC(=O)C3CC3)ncc12 (stereo not drawn) [Example 921, N-(8-(methylamino)-5-(5-(2-(trifluoromethyl)morpholino)benzo[d]oxazol-2-yl)-2,7-naphthyridin-3-yl)cyclopropanecarboxamide] |
|  | ≤ 500 nM |  | ≤ 100 nM | CNc1ncc(-c2nc3c(Br)cccc3o2)c2cc(NC(=O)C3CC3)ncc12 [Example 272, N-(5-(4-bromobenzo[d]oxazol-2-yl)-8-(methylamino)-2,7-naphthyridin-3-yl)cyclopropanecarboxamide] |
| ≤ 100 nM | ≤ 500 nM |  |  | CNC(=O)c1ccc(C#Cc2cnc(NC)c3cnc(NC(=O)C4CC4)cc23)cc1 [Example 672, 4-((6-(cyclopropanecarboxamido)-1-(methylamino)-2,7-naphthyridin-4-yl)ethynyl)-N-methylbenzamide] |
| ≤ 100 nM | ≤ 500 nM |  |  | CNc1ncc(/C=C/c2ccc(CC#N)cc2)c2cc(NC(=O)C3CC3)ncc12 [Example 783, (E)-N-(5-(4-(cyanomethyl)styryl)-8-(methylamino)-2,7-naphthyridin-3-yl)cyclopropanecarboxamide] |
